Source: ChEMBL document CHEMBL1147817, “Two novel furan derivatives from Phellinus linteus with anti-complement activity” (Bioorg Med Chem Lett, 2006)

Experiment: Inhibition of classical pathway of the complement system
Assay type: functional, Homo sapiens
In the case of `CO[C@H]1O[C@H](C(O)CO)/C(=C/c2ccc(CO)o2)C1=O` (stereo partly drawn) [PHELLINUSFURAN B], the IC50 is reported as 33.7 µM. Work on `O=C(/C=C/c1ccc(O)c(O)c1)O[C@H](Cc1ccc(O)c(O)c1)C(=O)O` [ROSMARINIC ACID] yielded an IC50 of 180 µM. `CO[C@H]1O[C@@H](C(O)CO)/C(=C/c2ccc(CO)o2)C1=O` (stereo partly drawn) [PHELLINUSFURAN A] gave an IC50 of 33.6 µM.
